Series [1] can be described thus: Diarrhoea inducing action, subcutaneous. The series is classed as in vivo. The note with it: up to the dose of 3 mg/kg, rat.
Series [2] relates to platelet rich plasma. Nature of the series: Anti-aggregatory effect in platelet rich plasma (Born's method; arachidonic acid, ADP and collagen). Type of series: cell-based. The note with it: PRP of man or rabbit, ADP, collagen.
The nature of series [3]: Arterial blood pressure of anesthetized rats, intravenous injection. The series is classed as in vivo. The note with it: rat, i.v., pentobarbital anesthesia. How it is done: Under pentobarbital anesthesia (50 mg/kg s.c.), a catheter was inserted into the carotid artery. The blood pressure was measured via a pressure transducer on a polygraph.
The conditions of series [4]: neutral aqueous solution; cited from earlier work.
The test system of series [5] is Human Platelet. The series can be described thus: Human platelet aggregation inhibiting activity (aggregating agent ADP). The series is classed as cell-based. The note with it: human platelet rich plasma, read-out: ID50, human platelet aggregation inhibiting activity. The protocol: Blood was collected from healthy volunteers using a disposable syringe containing 3.8% sodium citrate from the saphnous vein. The blood was centrifuged for 10 minutes at 160×g. The resultant supernatant liquid was used as platelet rich plasma (PRP). Aggregation was induced by […] ADP (Adenosine diphosphate). The inhibition rate was calculated against a control aggregation of 100%.
ED50 (effective dose 50) is defined as the dosage required to produce a response in 50% of the subjects to whom the compound is given.

Series [6] concerns gastric juice secretion. The series can be described thus: Gastric juice secretion inhibition (Shay's method), subcutaneous. The series is classed as in vivo.
The test system of series [7] is gastric mucous membrane. The series can be described thus: Protection against gastric mucous membrane lesion due to alcohol (Robert's method). Type of series: in vivo. The note with it: rat, oral. The protocol: Gastric cytoprotection was measured according to the method of Robert et al (Gastroenterol 77, 433-443, 1979). The rats fasted overnight and were given a necrotizing agent (0.2N NaOH 1 ml/rat (Method A) or Absolute EtOH (Method B)) and killed one hour later for the examination of gastric lesions. The test drug was administered 30 minutes before the necrotizing agent. The length of the lesion was measured and expressed in terms of the ulcer index. The effect of the drug was expressed in terms of the inhibition rate against the ulcer index of a control animal.

For series [8] the following is noted: as recognized in prostaglandin E1 and E2; cited from earlier work.

We go through 18 compounds from patent US4822804A, “5,6,7,-trinor-4,8-inter-m-phenylene 2-nor PGI2 derivatives and anti-ulcer, anti-thrombotic and anti-hypertensive pharmaceutical compositions containing them” (Toray Industries, Inc., priority 1981, dated 1989).

Converted amounts (≈) assume the structure as drawn.

As to `CCCC(C)CC(O)C=CC1C(O)CC2Oc3c(CCCC(=O)O)cccc3C21` (stereo not drawn) [Compound 49, 5,6,7-trinor-4,8-inter-m-phenylene-17-β-methyl PGI2], in series [1], the diarrhoea inducing action result is on record as “do not exhibit the diarrhoea inducing actions”. The “anti-aggregatory effect compared with prostaglandin E1” value in series [2] is “comparable or stronger anti-aggregatory effect”. Further, in series [3], the “blood pressure reducing activity relative to prostaglandin E1” value is given as 1-2 times and the “duration of blood pressure reducing activity compared with prostaglandin E1” value was “more prolonged duration”.
`CCCCC[C@H](O)/C=C/[C@@H]1[C@H]2C/C(=C/CCCC(=O)O)O[C@H]2C[C@H]1O` [PGI2, Prostaglandin I2]: the “stability in aqueous solution” value in series [4] is “very unstable even in a neutral aqueous solution”.
Turning to `CCC[C@H](C)C[C@H](O)/C=C/[C@@H]1[C@H]2c3cccc(CCC(=O)O)c3O[C@H]2C[C@H]1O` [5,6,7-trinor-4,8-inter-m-phenylene-2-nor-17(S)-methyl PGI2], the IC50 in series [5] was found to be 0.0006 µg/mL (≈ 0.00154 µM).
Same read-out and setting: then `CCCOC[C@H](O)/C=C/[C@@H]1[C@H]2c3cccc(CCCC(=O)O)c3O[C@H]2C[C@H]1O` (relative stereo) [Compound 66, 5,6,7-trinor-4,8-inter-m-phenylene-17,18,19,20-tertranor-16-propoxy PGI.su b.2], with 0.49 µg/mL (≈ 1.25 µM).
`CCCCC(C)C[C@H](O)/C=C/[C@@H]1[C@H]2c3cccc(CCCC(=O)O)c3O[C@H]2C[C@H]1O` (stereo partly drawn) [Compound 55, 5,6,7-trinor-4,8-inter-m-phenylene-17-α-methyl-20-homo PGI2]: the diarrhoea inducing action result in series [1] is on record as “do not exhibit the diarrhoea inducing actions”. For the same compound, the “anti-aggregatory effect compared with prostaglandin E1” value in series [2] is given as “comparable or stronger anti-aggregatory effect”. Also, in series [3], the “blood pressure reducing activity relative to prostaglandin E1” value was 1-2 times and the “duration of blood pressure reducing activity compared with prostaglandin E1” value is reported as “more prolonged duration”.
With `CCOCC(C)(C)[C@H](O)/C=C/[C@@H]1[C@H]2c3cccc(CCCC(=O)O)c3O[C@H]2C[C@H]1O` (relative stereo) [Compound 76, 5,6,7-trinor-4,8-inter-m-phenylene-16,16-dimethyl-18,19,20-trinor-17-ethoxyPGI2], the “effective dose relative to the dose of prostaglandin E2, gastric juice secretion inhibition” value in series [6] was 0.1-0.3 times. In addition, in series [7], the “gastric mucous membrane protecting activity relative to prostaglandin E2” value is given as 0.3-1 times.
Turning to `CCC[C@H](C)C[C@H](O)/C=C/[C@@H]1[C@H]2c3cccc(CCCC(=O)O)c3O[C@H]2C[C@H]1O` [5,6,7-trinor-4,8-inter-m-phenylene-17(S)-methyl PGI2], the IC50 in series [5] worked out at 0.005 µg/mL (≈ 0.0124 µM).
For the compound `CCCC(C)C[C@H](O)/C=C/[C@@H]1[C@H]2c3cccc(CCCC(=O)O)c3O[C@H]2C[C@H]1O` (stereo partly drawn) [Compound 48, 5,6,7-trinor-4,8-inter-m-phenylene-17-α-methyl PGI2], in series [1], the diarrhoea inducing action result is given as “do not exhibit the diarrhoea inducing actions”. In addition, in series [2], the “anti-aggregatory effect compared with prostaglandin E1” value was “comparable or stronger anti-aggregatory effect”. In series [3], the “blood pressure reducing activity relative to prostaglandin E1” value is 1-2 times and the “duration of blood pressure reducing activity compared with prostaglandin E1” value is recorded as “more prolonged duration”.
With `CCCCC(C)[C@H](O)/C=C/[C@@H]1[C@H]2c3cccc(CCCC(=O)O)c3O[C@H]2C[C@H]1O` (stereo partly drawn) [5,6,7-trinor-4,8-inter-m-phenylene-16-methyl PGI2], the IC50 in series [5] amounted to 0.031 µg/mL (≈ 0.077 µM).
With `CCCCC[C@H](O)/C=C/[C@H]1[C@H](O)CC(=O)[C@@H]1C/C=C\CCCC(=O)O` [prostaglandin E2], the “diarrhoea inducing action of reference prostaglandins” value in series [8] is recorded as “diarrhoea inducing actions recognized”.
For `O=C(O)CCCc1cccc2c1O[C@H]1C[C@@H](O)[C@H](/C=C/[C@@H](O)COc3ccccc3)[C@@H]21` (relative stereo) [Compound 60, 5,6,7-trinor-4,8-inter-m-phenylene-17,18,19,20-tetranor-16-phenoxy PGI2], in series [6], the “effective dose relative to the dose of prostaglandin E2, gastric juice secretion inhibition” value is given as 0.1-0.3 times.
Regarding “5,6,7-trinor-4,9-inter-m-phenylene-17,18,19,20-tetranor-16-m-chlorophenoxy PGI2 [Compound 65]”, in series [6], the “effective dose in inhibiting gastric juice secretion” value lay within 0.3 to 1 mg/kg and the “effective dose relative to the dose of prostaglandin E2, gastric juice secretion inhibition” value is on record as 0.1-0.3 times.
Consider `CCCOC[C@H](O)/C=C/[C@@H]1[C@H]2c3cccc(CCC(=O)O)c3O[C@H]2C[C@H]1O` (relative stereo) [5,6,7-trinor-4,8-inter-m-phenylene-2,17,18,19,20-pentanor-16-propoxy PGI2], for which the IC50 in series [5] came to 0.048 µg/mL (≈ 0.128 µM).
Turning to `CCCCC(C)[C@H](O)/C=C/[C@@H]1[C@H]2c3cccc(CCC(=O)O)c3O[C@H]2C[C@H]1O` (stereo partly drawn) [5,6,7-trinor-4,8-inter-m-phenylene-2-nor-16-methyl PGI2], the IC50 in series [5] was determined as 0.011 µg/mL (≈ 0.0283 µM).
Regarding `COC(=O)CCCc1cccc2c1O[C@H]1C[C@@H](O)[C@H](C#CC(O)c3ccccc3)[C@@H]21` (stereo partly drawn) [Compound 19, 5,6,7-trinor-4,8-inter-m-phenylene-13,14-didehydro-15-phenyl-16,17,18,19,20-pentanor PGI2 methyl ester], in series [1], the diarrhoea inducing action result is on record as “do not exhibit the diarrhoea inducing actions”. Also, the “anti-aggregatory effect compared with prostaglandin E1” value in series [2] is reported as “comparable or stronger anti-aggregatory effect”. In series [6], the “effective dose relative to the dose of prostaglandin E2, gastric juice secretion inhibition” value is on record as 0.1-0.3 times. In series [7], the “gastric mucous membrane protecting activity relative to prostaglandin E2” value is listed as 0.3-1 times. Moreover, in series [3], the “blood pressure reducing activity relative to prostaglandin E1” value is listed as 1-2 times and the “duration of blood pressure reducing activity compared with prostaglandin E1” value is “more prolonged duration”.
As for `O=C(O)/C=C/Cc1cccc2c1O[C@H]1C[C@@H](O)[C@H](/C=C/[C@@H](O)c3ccccc3)[C@@H]21` (relative stereo) [Compound 97, 5,6,7-trinor-4,8-inter-m-phenylene-2,3-dehydro-16,17,18,19,20-pentanor-15-phenyl-PGI2], the diarrhoea inducing action result in series [1] is listed as “do not exhibit the diarrhoea inducing actions”. The “anti-aggregatory effect compared with prostaglandin E1” value in series [2] is reported as “comparable or stronger anti-aggregatory effect”. Also, the “effective dose relative to the dose of prostaglandin E2, gastric juice secretion inhibition” value in series [6] is listed as 0.1-0.3 times. Also, the “gastric mucous membrane protecting activity relative to prostaglandin E2” value in series [7] is recorded as 0.3-1 times. In series [3], the “blood pressure reducing activity relative to prostaglandin E1” value was 1-2 times and the “duration of blood pressure reducing activity compared with prostaglandin E1” value was “more prolonged duration”.
Regarding `CCCCCCC(O)C#CC1C(O)CC2Oc3c(CCCC(=O)O)cccc3C21` (stereo not drawn) [Compound 6, 5,6,7,-trinor-4,8-inter-m-phenylene-13,14-didehydro-20-methyl-PGI2], in series [1], the diarrhoea inducing action result was “do not exhibit the diarrhoea inducing actions”. Also, the “anti-aggregatory effect compared with prostaglandin E1” value in series [2] is “comparable or stronger anti-aggregatory effect”. In addition, in series [3], the “blood pressure reducing activity relative to prostaglandin E1” value is recorded as 1-2 times and the “duration of blood pressure reducing activity compared with prostaglandin E1” value is “more prolonged duration”.
In the same order, the values of `O=C(O)CCCc1cccc2c1OC1CC(O)C(C#CC(O)C3CCCCC3)C21` (stereo not drawn) [Compound 9, 5,6,7,-trinor-4,8-inter-m-phenylene-13,14-didehydro-15-cyclohexyl-16,17,18,19,20-pentanor PGI2] are “do not exhibit the diarrhoea inducing actions”, “comparable or stronger anti-aggregatory effect”, 1-2 times and “more prolonged duration”.
